Laboratory results from patent publication US20230146675A1, “PYRIMIDO[5,4-d]PYRIMIDINE DERIVATIVES AS ENT INHIBITORS FOR THE TREATMENT OF CANCERS, AND COMBINATION THEREOF WITH ADENOSINE RECEPTOR ANTAGONISTS” (ITEOS BELGIUM SA, priority 2020, published 2023).
Where two headings read alike, the source gives them in different places.

Target: T1, Phosphodiesterase-6 (Bos taurus, UniProt P11541+P23439)
T1 construct: using an enzyme isolated from bovine retinas at Eurofins-Cerep; tissue Eurofins-Cerep; host or cells: bovine retinas
T1 sequence (P11541 2-856 limits assumed): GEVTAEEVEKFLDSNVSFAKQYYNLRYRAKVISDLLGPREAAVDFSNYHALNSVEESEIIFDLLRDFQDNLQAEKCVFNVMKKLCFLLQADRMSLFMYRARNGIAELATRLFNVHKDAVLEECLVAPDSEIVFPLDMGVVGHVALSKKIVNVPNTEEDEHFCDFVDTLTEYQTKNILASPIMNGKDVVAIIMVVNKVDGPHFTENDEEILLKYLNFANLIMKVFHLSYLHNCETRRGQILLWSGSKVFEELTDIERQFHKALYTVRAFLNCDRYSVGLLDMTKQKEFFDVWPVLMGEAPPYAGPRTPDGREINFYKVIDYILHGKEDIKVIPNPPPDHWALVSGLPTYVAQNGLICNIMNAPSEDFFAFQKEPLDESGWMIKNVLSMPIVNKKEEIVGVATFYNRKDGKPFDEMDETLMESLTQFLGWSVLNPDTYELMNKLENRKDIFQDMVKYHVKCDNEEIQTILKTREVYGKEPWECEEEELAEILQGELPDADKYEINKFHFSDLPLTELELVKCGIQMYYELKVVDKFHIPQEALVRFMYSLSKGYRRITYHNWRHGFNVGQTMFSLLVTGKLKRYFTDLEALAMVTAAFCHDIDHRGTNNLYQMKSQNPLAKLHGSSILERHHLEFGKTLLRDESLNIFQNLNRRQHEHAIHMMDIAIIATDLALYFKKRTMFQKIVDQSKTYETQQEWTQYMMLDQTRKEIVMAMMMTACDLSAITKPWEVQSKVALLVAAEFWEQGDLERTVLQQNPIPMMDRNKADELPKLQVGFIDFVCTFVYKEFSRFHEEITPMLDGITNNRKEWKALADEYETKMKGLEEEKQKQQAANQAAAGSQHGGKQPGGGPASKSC
T1 sequence (P23439 2-850 limits assumed): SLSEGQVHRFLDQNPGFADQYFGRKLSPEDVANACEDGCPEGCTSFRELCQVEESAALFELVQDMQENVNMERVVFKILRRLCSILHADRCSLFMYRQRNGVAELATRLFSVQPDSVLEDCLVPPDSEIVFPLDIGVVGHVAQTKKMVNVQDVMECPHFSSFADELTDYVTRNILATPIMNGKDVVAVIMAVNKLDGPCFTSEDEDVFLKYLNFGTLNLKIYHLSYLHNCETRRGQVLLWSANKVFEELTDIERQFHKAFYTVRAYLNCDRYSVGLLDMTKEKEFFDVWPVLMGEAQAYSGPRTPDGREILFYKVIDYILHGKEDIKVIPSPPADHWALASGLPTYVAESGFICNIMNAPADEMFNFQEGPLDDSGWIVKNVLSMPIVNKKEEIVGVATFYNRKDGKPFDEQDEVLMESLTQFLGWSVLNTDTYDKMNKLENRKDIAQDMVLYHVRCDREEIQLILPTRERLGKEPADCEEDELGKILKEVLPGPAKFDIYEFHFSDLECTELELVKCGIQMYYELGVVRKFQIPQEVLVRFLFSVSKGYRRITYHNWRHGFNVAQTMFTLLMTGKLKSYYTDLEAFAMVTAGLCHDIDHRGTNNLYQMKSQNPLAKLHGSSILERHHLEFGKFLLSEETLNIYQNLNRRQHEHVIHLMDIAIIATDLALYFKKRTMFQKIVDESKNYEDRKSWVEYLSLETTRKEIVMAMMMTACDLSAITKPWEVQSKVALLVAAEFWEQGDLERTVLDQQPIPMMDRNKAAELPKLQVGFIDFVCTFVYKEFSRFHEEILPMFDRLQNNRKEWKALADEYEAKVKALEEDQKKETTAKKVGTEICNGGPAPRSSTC
Assay: PDE6 (non-selective) assay
Format: biochemical, bovine
Method: The test compound (compound 72), reference compound or water (control) were added to a buffer containing 40 mM Tris/HCl (pH 7.4) and 8 mM MgCl2, 450 nM cAMP and 0.0125 μCi [3H]cAMP. Thereafter, the reaction was initiated by addition of the enzyme (about 1.5 U) and the mixture was incubated for 20 min at 22° C. For basal control measurements, the enzyme was omitted from the reaction mixture. Following incubation SPA beads were added. After 30 min at 22° C. under shaking, the amount of [3H]5′AMP was quantified with a scintillation counter (Topcount, Packard). The results were expressed as a percent inhibition of the control enzyme activity. The standard inhibitory reference compound was Ro 20-1724, which was tested in each experiment at several concentrations to obtain an inhibition curve from which its IC50 value was calculated. • Phosphodiesterase-6 quantified by measuring the formation of 5′GMP from cGMP using an enzyme isolated from bovine retinas at Eurofins-Cerep
The test compound (compound 72), reference compound or water (control) were added to a buffer containing 40 mM Tris/HCl (pH 7.8), 3 mM MgCl2, 1.4 mM DTT, 0.21% BSA, 200 mM NH4Cl, 2 μM cGMP and 0.05 μCi [3H]cGMP. […] After 20 min at 22° C. under shaking, the amount of [3H]5′GMP was quantified with a scintillation counter (Topcount, Packard). The results were expressed as a percent inhibition of the control enzyme activity. […]

**Q.** COCCN(CCOC)c1nc(N2CCN(C)C(=O)C2)c2nc(N(CCOC)CCOC)nc(N3CCC(OC)CC3)c2n1 [Compound 72, 4-(2,6-bis(bis(2-methoxyethyl)amino)-8-(4-methoxypiperidin-1-yl)pyrimido[5,4-d]pyrimidin-4-yl)-1-methylpiperazin-2-one] was tested. Which IC50 (read-out: PDE6 (non-selective) IC50) did it give?
**A.** 1 to 10 µM

**Q.** What about the IC50 (read-out: PDE6 IC50) of the same molecule?
**A.** 3.23 µM
